Data published in patent publication US8450270B2 (Indiana University Research and Technology Corporation, priority 2008, dated 2013).
Square brackets hold non-standard residues; d marks the D form. Peptide text beside a SMILES is read from it. Dab = NCC[C@H](N)C(=O)O; Aib = CC(C)(N)C(=O)O

Target: Glucagon Receptor (Homo sapiens, UniProt P47871)
Assay: Functional assay-cAMP synthesis (luciferase reporter, HEK293), glucagon receptor
Conditions: for % activity*: glucagon receptor; for EC50: EC50 at Glucagon Receptor (nM)
Text: The luminescent light output indicates activation of the luciferase reporter gene, which in turn is a measure of the activation of the receptor.

Glucagon Receptor, sequence (P47871 26-477): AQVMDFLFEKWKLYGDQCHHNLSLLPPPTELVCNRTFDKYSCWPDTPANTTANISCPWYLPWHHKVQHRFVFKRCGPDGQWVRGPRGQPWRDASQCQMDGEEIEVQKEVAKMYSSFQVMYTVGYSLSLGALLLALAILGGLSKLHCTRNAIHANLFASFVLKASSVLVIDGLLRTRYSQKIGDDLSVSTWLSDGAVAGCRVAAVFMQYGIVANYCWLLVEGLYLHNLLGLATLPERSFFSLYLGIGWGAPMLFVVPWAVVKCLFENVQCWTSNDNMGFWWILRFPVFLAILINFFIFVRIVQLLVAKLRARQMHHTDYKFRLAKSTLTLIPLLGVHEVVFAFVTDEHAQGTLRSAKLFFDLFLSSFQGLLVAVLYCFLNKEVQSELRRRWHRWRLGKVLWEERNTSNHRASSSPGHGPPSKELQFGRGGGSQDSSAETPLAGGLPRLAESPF

Compound | % activity* (Table 7) [%] | also measured
CSCC[C@H](NC(=O)[C@H](CC(C)C)NC(=O)[C@H](Cc1c[nH]c2ccccc12)NC(=O)[C@H](C)NC(=O)[C@@H](NC(=O)[C@H](Cc1ccccc1)NC(=O)[C@H](CC(=O)O)NC(=O)[C@H](C)NC(=O)[C@H](C)NC(=O)[C@H](CCCNC(=N)N)NC(=O)[C@H](CCCNC(=N)N)NC(=O)C(C)(C)NC(=O)[C@H](CC(=O)O)NC(=O)[C@H](CC(C)C)NC(=O)[C@H](Cc1ccc(O)cc1)NC(=O)[C@H](CCCCN)NC(=O)[C@H](CO)NC(=O)[C@H](Cc1ccc(O)cc1)NC(=O)[C@H](CC(=O)O)NC(=O)[C@H](CO)NC(=O)[C@@H](NC(=O)[C@H](Cc1ccccc1)NC(=O)[C@@H](NC(=O)CNC(=O)[C@H](CCC(N)=O)NC(=O)[C@H](CO)NC(=O)[C@@H](N)Cc1c[nH]cn1)[C@@H](C)O)[C@@H](C)O)C(C)C)C(=O)N[C@@H](CC(=O)O)C(=O)N[C@@H](CCC(=O)O)C(=O)O [SEQ ID NO: 68] | 15 | 
CCCC[C@H](NC(=O)[C@H](CC(C)C)NC(=O)[C@H](Cc1c[nH]c2ccccc12)NC(=O)[C@H](C)NC(=O)[C@@H](NC(=O)[C@H](Cc1ccccc1)NC(=O)[C@H](CCC(=O)O)NC(=O)[C@H](C)NC(=O)[C@H](C)NC(=O)[C@H](CCCNC(=N)N)NC(=O)[C@H](CCCNC(=N)N)NC(=O)[C@@H](NC(=O)[C@H](CC(=O)O)NC(=O)[C@H](CC(C)C)NC(=O)[C@H](Cc1ccc(O)cc1)NC(=O)[C@H](CCCCN)NC(=O)[C@H](CO)NC(=O)[C@H](Cc1ccc(O)cc1)NC(=O)[C@H](CC(=O)O)NC(=O)[C@H](CO)NC(=O)[C@@H](NC(=O)[C@H](Cc1ccccc1)NC(=O)[C@@H](NC(=O)CNC(=O)[C@H](CC[S+](C)[O-])NC(=O)[C@H](CO)NC(=O)[C@@H](N)Cc1c[nH]cn1)[C@@H](C)O)[C@@H](C)O)[C@@H](C)O)C(C)C)C(=O)N[C@@H](CC(=O)O)C(=O)N[C@@H](CCC(=O)O)C(=O)O (stereo partly drawn) [SEQ ID NO: 66] | 7 | 
CCCCCCCCCCCCCCCC(=O)NCCCCCC(=O)NCCCC[C@H](NC(=O)[C@H](CC(=O)O)NC(=O)[C@H](CO)NC(=O)[C@@H](NC(=O)[C@H](Cc1ccccc1)NC(=O)[C@@H](NC(=O)CNC(=O)[C@H](CCC(N)=O)NC(=O)C(C)(C)NC(=O)[C@@H](N)Cc1c[nH]cn1)[C@@H](C)O)[C@@H](C)O)C(=O)N[C@@H](CO)C(=O)N[C@@H](CCCCN)C(=O)N[C@@H](Cc1ccc(O)cc1)C(=O)N[C@@H](CC(C)C)C(=O)N[C@@H](CC(=O)O)C(=O)NC(C)(C)C(=O)N[C@@H](CCCNC(=N)N)C(=O)N[C@@H](CCCNC(=N)N)C(=O)N[C@@H](C)C(=O)N[C@@H](CCC(N)=O)C(=O)N[C@@H](CC(=O)O)C(=O)N[C@@H](Cc1ccccc1)C(=O)N[C@H](C(=O)N[C@@H](CCC(N)=O)C(=O)N[C@@H](Cc1c[nH]c2ccccc12)C(=O)N[C@@H](CC(C)C)C(=O)N[C@@H](CCSC)C(=O)N[C@@H](CC(N)=O)C(=O)N[C@H](C(N)=O)[C@@H](C)O)C(C)C [Peptide 85, HXQGTFTSDKSKYLDXRRAQDFVQWLMNT-NH2] |  | EC50 (Table 10): 0.01 nM
CC(=O)NCC[C@H](NC(=O)[C@H](CO)NC(=O)[C@@H](N)Cc1c[nH]cn1)C(=O)NCC(=O)N[C@H](C(=O)N[C@@H](Cc1ccccc1)C(=O)N[C@H](C(=O)N[C@@H](CO)C(=O)N[C@@H](CC(=O)O)C(=O)N[C@@H](Cc1ccc(O)cc1)C(=O)N[C@@H](CO)C(=O)N[C@@H](CCCCN)C(=O)N[C@@H](Cc1ccc(O)cc1)C(=O)N[C@@H](CC(C)C)C(=O)N[C@@H](CC(=O)O)C(=O)NC(C)(C)C(=O)N[C@@H](CCCNC(=N)N)C(=O)N[C@@H](CCCNC(=N)N)C(=O)N[C@@H](C)C(=O)N[C@@H](CO)C(=O)N[C@@H](CC(=O)O)C(=O)N[C@@H](Cc1ccccc1)C(=O)N[C@H](C(=O)N[C@@H](CO)C(=O)N[C@@H](Cc1c[nH]c2ccccc12)C(=O)N[C@@H](CC(C)C)C(=O)N[C@@H](CC(C)C)C(=O)N[C@@H](CC(=O)O)C(=O)N[C@@H](CCC(=O)O)C(=O)O)C(C)C)[C@@H](C)O)[C@@H](C)O [SEQ ID NO: 73] (H-HS[Dab](Ac)GTFTSDYSKYLD[Aib]RRASDFVSWLLDE-OH; N-terminus and C-terminus assumed) |  | % activity* (Table 8, wildtype glucagon = 100): 54%
CNC(=O)CC[C@H](NC(=O)[C@H](CO)NC(=O)[C@@H](N)Cc1c[nH]cn1)C(=O)NCC(=O)N[C@H](C(=O)N[C@@H](Cc1ccccc1)C(=O)N[C@H](C(=O)N[C@@H](CO)C(=O)N[C@@H](CC(=O)O)C(=O)N[C@@H](Cc1ccc(O)cc1)C(=O)N[C@@H](CO)C(=O)N[C@@H](CCCCN)C(=O)N[C@@H](Cc1ccc(O)cc1)C(=O)N[C@@H](CC(C)C)C(=O)N[C@@H](CC(=O)O)C(=O)NC(C)(C)C(=O)N[C@@H](CCCNC(=N)N)C(=O)N[C@@H](CCCNC(=N)N)C(=O)N[C@@H](C)C(=O)N[C@@H](C)C(=O)N[C@@H](CC(=O)O)C(=O)N[C@@H](Cc1ccccc1)C(=O)N[C@H](C(=O)N[C@@H](C)C(=O)N[C@@H](Cc1c[nH]c2ccccc12)C(=O)N[C@@H](CC(C)C)C(=O)N[C@@H](CCSC)C(=O)N[C@@H](CC(=O)O)C(=O)N[C@@H](CCC(=O)O)C(=O)O)C(C)C)[C@@H](C)O)[C@@H](C)O [SEQ ID NO: 70] | 55 | 
CCCC[C@H](NC(=O)[C@H](CC(C)C)NC(=O)[C@H](Cc1c[nH]c2ccccc12)NC(=O)[C@H](C)NC(=O)[C@@H](NC(=O)[C@H](Cc1ccccc1)NC(=O)[C@H](CCC(=O)O)NC(=O)[C@H](C)NC(=O)[C@H](C)NC(=O)[C@H](CCCNC(=N)N)NC(=O)[C@H](CCCNC(=N)N)NC(=O)[C@@H](NC(=O)[C@H](CC(=O)O)NC(=O)[C@H](CC(C)C)NC(=O)[C@H](Cc1ccc(O)cc1)NC(=O)[C@H](CCCCN)NC(=O)[C@H](CO)NC(=O)[C@H](Cc1ccc(O)cc1)NC(=O)[C@H](CC(=O)O)NC(=O)[C@H](CO)NC(=O)[C@@H](NC(=O)[C@H](Cc1ccccc1)NC(=O)[C@@H](NC(=O)CNC(=O)[C@H](CNC(N)=O)NC(=O)[C@H](CO)NC(=O)[C@@H](N)Cc1c[nH]cn1)[C@@H](C)O)[C@@H](C)O)[C@@H](C)O)C(C)C)C(=O)N[C@@H](CC(=O)O)C(=O)N[C@@H](CCC(=O)O)C(=O)O [SEQ ID NO: 64] | 13 | EC50 (Table 7): 0.48 nM
CCCC[C@H](NC(=O)[C@H](CC(C)C)NC(=O)[C@H](Cc1c[nH]c2ccccc12)NC(=O)[C@H](C)NC(=O)[C@@H](NC(=O)[C@H](Cc1ccccc1)NC(=O)[C@H](CCC(=O)O)NC(=O)[C@H](C)NC(=O)[C@H](C)NC(=O)[C@H](CCCNC(=N)N)NC(=O)[C@H](CCCNC(=N)N)NC(=O)[C@@H](NC(=O)[C@H](CC(=O)O)NC(=O)[C@H](CC(C)C)NC(=O)[C@H](Cc1ccc(O)cc1)NC(=O)[C@H](CCCCN)NC(=O)[C@H](CO)NC(=O)[C@H](Cc1ccc(O)cc1)NC(=O)[C@H](CC(=O)O)NC(=O)[C@H](CO)NC(=O)[C@@H](NC(=O)[C@H](Cc1ccccc1)NC(=O)[C@@H](NC(=O)CNC(=O)[C@H](CSCNC(C)=O)NC(=O)[C@H](CO)NC(=O)[C@@H](N)Cc1c[nH]cn1)[C@@H](C)O)[C@@H](C)O)[C@@H](C)O)C(C)C)C(=O)N[C@@H](CC(=O)O)C(=O)N[C@@H](CCC(=O)O)C(=O)O [SEQ ID NO: 62] | 33 | EC50 (Table 7): 0.18 nM
